In patent EP4722207A1, “OXOISOINDOLINYL-SUBSTITUTED TETRAHYDROPYRIMIDINEDIONE DERIVATIVE AND USE THEREOF” (Gluetacs Therapeutics (Shanghai) Co., Ltd., priority 2023, dated 2024):

Key:
Assay type in all cases: cell-based
Settings in all cases: compounds at 50 nM and 500 nM, 24 hours
[1] = biological target: T1, WEE1 (Homo sapiens, UniProt P30291+Q96SW2); experiment: Western-blot assay, substrate protein degradation in hPBMCs: WEE1
T1 construct: effects of the compounds of the present disclosure on the expression of target proteins in cells; endogenous in cells; host or cells: human PBMCs (hPBMCs)
T1 sequence (P30291 whole entry): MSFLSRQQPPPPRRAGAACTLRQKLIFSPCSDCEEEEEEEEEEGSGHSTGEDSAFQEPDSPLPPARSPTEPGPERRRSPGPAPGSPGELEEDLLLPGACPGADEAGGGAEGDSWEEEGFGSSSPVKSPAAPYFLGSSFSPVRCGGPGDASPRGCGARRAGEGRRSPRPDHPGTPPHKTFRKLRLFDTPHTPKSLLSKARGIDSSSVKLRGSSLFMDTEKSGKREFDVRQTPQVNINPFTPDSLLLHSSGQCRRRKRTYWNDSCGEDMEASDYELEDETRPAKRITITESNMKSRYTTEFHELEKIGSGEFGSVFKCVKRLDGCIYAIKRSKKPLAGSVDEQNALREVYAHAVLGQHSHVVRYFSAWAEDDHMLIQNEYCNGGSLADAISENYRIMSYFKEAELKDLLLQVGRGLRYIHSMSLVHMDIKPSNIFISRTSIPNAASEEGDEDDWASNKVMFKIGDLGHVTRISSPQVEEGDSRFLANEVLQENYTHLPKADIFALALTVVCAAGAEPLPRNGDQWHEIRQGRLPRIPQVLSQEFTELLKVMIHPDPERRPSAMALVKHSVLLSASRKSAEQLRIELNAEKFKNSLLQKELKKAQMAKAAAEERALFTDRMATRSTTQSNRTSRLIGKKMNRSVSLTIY
T1 sequence (Q96SW2 whole entry): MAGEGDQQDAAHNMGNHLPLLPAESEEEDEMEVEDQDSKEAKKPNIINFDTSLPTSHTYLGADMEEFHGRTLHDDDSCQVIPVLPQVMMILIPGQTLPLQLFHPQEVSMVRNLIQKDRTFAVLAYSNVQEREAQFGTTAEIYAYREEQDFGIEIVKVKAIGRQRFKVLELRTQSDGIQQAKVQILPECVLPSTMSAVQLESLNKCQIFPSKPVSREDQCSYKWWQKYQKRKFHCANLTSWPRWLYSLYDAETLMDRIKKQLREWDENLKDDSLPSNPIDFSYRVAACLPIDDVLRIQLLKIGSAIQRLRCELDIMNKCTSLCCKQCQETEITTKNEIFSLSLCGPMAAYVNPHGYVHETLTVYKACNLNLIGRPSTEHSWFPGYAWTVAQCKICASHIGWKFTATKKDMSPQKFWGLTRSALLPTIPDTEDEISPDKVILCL
T1 sequence (Q16531 whole entry partner): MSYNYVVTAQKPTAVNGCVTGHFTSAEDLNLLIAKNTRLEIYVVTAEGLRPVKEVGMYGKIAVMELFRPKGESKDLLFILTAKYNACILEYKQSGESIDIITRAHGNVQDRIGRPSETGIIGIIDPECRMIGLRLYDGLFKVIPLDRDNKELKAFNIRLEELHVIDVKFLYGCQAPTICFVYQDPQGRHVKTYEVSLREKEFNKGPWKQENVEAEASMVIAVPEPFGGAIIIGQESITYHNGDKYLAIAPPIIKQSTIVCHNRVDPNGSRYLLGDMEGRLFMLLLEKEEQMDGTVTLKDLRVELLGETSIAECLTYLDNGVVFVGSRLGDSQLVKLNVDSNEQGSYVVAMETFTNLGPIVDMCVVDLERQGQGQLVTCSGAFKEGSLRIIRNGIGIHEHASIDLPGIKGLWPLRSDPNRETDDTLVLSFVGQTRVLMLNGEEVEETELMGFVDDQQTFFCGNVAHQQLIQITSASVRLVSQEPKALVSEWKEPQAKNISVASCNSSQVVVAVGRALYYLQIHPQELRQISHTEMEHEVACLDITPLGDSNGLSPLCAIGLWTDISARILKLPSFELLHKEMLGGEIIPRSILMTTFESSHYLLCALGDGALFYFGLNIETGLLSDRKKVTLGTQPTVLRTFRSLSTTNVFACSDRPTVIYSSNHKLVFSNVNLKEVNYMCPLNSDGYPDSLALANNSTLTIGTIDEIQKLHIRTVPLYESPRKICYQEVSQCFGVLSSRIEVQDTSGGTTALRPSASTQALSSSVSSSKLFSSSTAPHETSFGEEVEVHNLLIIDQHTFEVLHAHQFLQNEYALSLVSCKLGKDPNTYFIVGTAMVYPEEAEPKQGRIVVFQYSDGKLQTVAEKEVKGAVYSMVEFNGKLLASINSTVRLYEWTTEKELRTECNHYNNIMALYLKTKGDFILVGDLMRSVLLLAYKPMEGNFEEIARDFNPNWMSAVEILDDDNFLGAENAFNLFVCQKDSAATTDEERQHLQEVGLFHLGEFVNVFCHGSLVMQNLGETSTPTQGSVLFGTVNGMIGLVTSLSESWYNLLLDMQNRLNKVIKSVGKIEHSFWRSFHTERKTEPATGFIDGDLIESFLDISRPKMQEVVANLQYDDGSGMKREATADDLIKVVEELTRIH

[2] = biological target: T2, IKZF1 (Homo sapiens, UniProt Q13422+Q96SW2); experiment: Western-blot assay, substrate protein degradation in hPBMCs: IKZF1
T2 construct: effects of the compounds of the present disclosure on the expression of target proteins in cells; endogenous in cells; host or cells: human PBMCs (hPBMCs)
T2 sequence (Q13422 whole entry): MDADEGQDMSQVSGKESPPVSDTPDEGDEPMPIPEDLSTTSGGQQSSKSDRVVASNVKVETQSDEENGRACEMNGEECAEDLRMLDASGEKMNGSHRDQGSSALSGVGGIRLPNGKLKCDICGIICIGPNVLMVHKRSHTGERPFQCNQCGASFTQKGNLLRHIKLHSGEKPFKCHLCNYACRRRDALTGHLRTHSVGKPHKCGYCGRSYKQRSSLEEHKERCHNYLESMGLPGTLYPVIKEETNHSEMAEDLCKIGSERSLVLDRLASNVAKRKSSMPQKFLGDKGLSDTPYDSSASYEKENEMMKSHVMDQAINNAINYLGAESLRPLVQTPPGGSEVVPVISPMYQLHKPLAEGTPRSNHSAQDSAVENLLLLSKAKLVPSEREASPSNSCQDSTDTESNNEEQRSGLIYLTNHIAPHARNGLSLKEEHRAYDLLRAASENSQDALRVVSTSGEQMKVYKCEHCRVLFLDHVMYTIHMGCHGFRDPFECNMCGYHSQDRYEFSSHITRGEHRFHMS
T2 sequence (Q96SW2 whole entry): as the sequence (Q96SW2 whole entry) above
T2 sequence (Q16531 whole entry partner): as the sequence (Q16531 whole entry partner) above

[3] = biological target: T3, IKZF2 (Homo sapiens, UniProt Q96SW2+Q9UKS7); experiment: Western-blot assay, substrate protein degradation in hPBMCs: IKZF2
T3 construct: effects of the compounds of the present disclosure on the expression of target proteins in cells; endogenous in cells; host or cells: human PBMCs (hPBMCs)
T3 sequence (Q9UKS7 whole entry): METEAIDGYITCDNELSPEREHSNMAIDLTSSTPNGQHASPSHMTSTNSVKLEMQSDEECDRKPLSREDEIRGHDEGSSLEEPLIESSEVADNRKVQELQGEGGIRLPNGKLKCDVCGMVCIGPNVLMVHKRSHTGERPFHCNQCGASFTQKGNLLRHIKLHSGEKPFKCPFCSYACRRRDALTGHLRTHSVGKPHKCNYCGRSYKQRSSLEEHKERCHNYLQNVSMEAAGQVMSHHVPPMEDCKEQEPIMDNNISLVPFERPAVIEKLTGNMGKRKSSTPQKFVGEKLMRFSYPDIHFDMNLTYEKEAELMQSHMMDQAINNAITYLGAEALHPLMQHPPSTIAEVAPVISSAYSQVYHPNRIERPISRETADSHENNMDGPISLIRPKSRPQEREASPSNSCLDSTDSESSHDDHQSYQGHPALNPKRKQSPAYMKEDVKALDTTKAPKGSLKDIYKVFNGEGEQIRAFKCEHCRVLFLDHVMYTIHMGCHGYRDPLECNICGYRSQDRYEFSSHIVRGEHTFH
T3 sequence (Q96SW2 whole entry): as the sequence (Q96SW2 whole entry) above
T3 sequence (Q16531 whole entry partner): as the sequence (Q16531 whole entry partner) above

[4] = biological target: T4, IKZF3 (Homo sapiens, UniProt Q96SW2+Q9UKT9); experiment: Western-blot assay, substrate protein degradation in hPBMCs: IKZF3
T4 construct: effects of the compounds of the present disclosure on the expression of target proteins in cells; endogenous in cells; host or cells: human PBMCs (hPBMCs)
T4 sequence (Q9UKT9 whole entry): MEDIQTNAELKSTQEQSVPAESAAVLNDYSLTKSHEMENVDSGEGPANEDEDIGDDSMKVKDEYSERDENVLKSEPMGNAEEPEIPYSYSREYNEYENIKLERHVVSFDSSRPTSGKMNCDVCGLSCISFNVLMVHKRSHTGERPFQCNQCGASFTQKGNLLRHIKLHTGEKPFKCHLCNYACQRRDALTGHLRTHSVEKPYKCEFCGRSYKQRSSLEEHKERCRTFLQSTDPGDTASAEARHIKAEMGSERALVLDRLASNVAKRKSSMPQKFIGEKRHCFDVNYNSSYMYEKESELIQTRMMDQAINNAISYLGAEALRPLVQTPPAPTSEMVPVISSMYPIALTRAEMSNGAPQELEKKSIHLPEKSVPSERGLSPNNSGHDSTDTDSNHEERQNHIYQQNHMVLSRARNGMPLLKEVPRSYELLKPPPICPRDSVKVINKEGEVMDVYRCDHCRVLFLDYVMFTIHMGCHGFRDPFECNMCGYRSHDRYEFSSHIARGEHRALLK
T4 sequence (Q96SW2 whole entry): as the sequence (Q96SW2 whole entry) above
T4 sequence (Q16531 whole entry partner): as the sequence (Q16531 whole entry partner) above

[5] = biological target: T5, CK1α (Homo sapiens, UniProt P48729+Q96SW2); experiment: Western-blot assay, substrate protein degradation in hPBMCs: CK1α
T5 construct: effects of the compounds of the present disclosure on the expression of target proteins in cells; endogenous in cells; host or cells: human PBMCs (hPBMCs)

[6] = biological target: T6, GSPT1 (Homo sapiens, UniProt P15170+Q96SW2); experiment: Western-blot assay, substrate protein degradation in hPBMCs: GSPT1
T6 construct: effects of the compounds of the present disclosure on the expression of target proteins in cells; endogenous in cells; host or cells: human PBMCs (hPBMCs)
T6 sequence (P15170 whole entry): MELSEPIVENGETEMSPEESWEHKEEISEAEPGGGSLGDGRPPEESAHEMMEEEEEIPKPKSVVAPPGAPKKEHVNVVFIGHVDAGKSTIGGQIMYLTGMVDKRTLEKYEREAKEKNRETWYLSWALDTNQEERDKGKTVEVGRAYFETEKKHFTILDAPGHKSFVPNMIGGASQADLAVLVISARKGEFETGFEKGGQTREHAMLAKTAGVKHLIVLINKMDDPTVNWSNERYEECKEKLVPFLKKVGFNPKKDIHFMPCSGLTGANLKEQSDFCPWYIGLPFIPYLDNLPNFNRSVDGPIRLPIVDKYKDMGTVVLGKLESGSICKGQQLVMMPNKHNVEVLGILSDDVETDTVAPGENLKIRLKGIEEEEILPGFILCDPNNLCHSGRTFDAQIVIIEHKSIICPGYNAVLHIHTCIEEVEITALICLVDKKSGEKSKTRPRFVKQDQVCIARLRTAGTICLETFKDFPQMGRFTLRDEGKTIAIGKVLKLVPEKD
T6 sequence (Q96SW2 whole entry): as the sequence (Q96SW2 whole entry) above
T6 sequence (Q16531 whole entry partner): as the sequence (Q16531 whole entry partner) above

SMILES | WEE1 substrate protein remaining % [1] | IKZF1 substrate protein remaining % [2] | IKZF2 substrate protein remaining % [3] | IKZF3 substrate protein remaining % [4] | CK1α substrate protein remaining % [5] | GSPT1 substrate protein remaining % [6]
CC1CN(Cc2ccc3c(c2)C(=O)N(N2CCC(=O)NC2=O)C3=O)CC(C)N1C(c1ccccc1)c1ccccc1 (stereo not drawn) [GT-06430, 5-((4-benzhydryl-3,5-dimethylpiperazin-1-yl)methyl)-2-(2,4-dioxotetrahydropyrimidin-1(2H)-yl)isoindoline-1,3-dione] | A ("A" is defined as 0% ≤ substrate protein remaining % ≤ 80%) | A ("A" is defined as 0% ≤ substrate protein remaining % ≤ 80%) | B ("B" is defined as 80%< substrate protein remaining %≤ 100%) | A ("A" is defined as 0% ≤ substrate protein remaining % ≤ 80%) | B ("B" is defined as 80%< substrate protein remaining %≤ 100%) | A ("A" is defined as 0% ≤ substrate protein remaining % ≤ 80%)
CC1CN(Cc2ccc3c(c2)CN(N2CCC(=O)NC2=O)C3=O)CC(C)N1C(c1ccccc1)c1ccccc1 (stereo not drawn) [GT-06431, 1-(5-((4-benzhydryl-3,5-dimethylpiperazin-1-yl)methyl)-1-oxoisoindolin-2-yl)dihydropyrimidine-2,4(1H,3H)-dione] | A ("A" is defined as 0% ≤ substrate protein remaining % ≤ 80%) | A ("A" is defined as 0% ≤ substrate protein remaining % ≤ 80%) | A ("A" is defined as 0% ≤ substrate protein remaining % ≤ 80%) | B ("B" is defined as 80%< substrate protein remaining %≤ 100%) | B ("B" is defined as 80%< substrate protein remaining %≤ 100%) | A ("A" is defined as 0% ≤ substrate protein remaining % ≤ 80%)
O=C1CCN(N2C(=O)c3ccc(CN4CCN(Cc5ccccc5-c5ccc(Cl)cc5)CC4)cc3C2=O)C(=O)N1 [GT-06432, 5-((4-((4'-chloro-[1,1'-biphenyl]-2-yl)methyl)piperazin-1-yl)methyl)-2-(2,4-dioxotetrahydropyrimidin-1(2H)-yl)isoindoline-1,3-dione] | A ("A" is defined as 0% ≤ substrate protein remaining % ≤ 80%) | A ("A" is defined as 0% ≤ substrate protein remaining % ≤ 80%) | B ("B" is defined as 80%< substrate protein remaining %≤ 100%) | B ("B" is defined as 80%< substrate protein remaining %≤ 100%) | B ("B" is defined as 80%< substrate protein remaining %≤ 100%) | A ("A" is defined as 0% ≤ substrate protein remaining % ≤ 80%)
O=C1CCN(N2Cc3cc(CN4CCN(Cc5ccccc5-c5ccc(Cl)cc5)CC4)ccc3C2=O)C(=O)N1 [GT-06433, 1-(5-((4-((4'-chloro-[1,1'-biphenyl]-2-yl)methyl)piperazin-1-yl)methyl)-1-oxoisoindolin-2-yl)dihydropyrimidine-2,4(1H,3H)-dione] | A ("A" is defined as 0% ≤ substrate protein remaining % ≤ 80%) | A ("A" is defined as 0% ≤ substrate protein remaining % ≤ 80%) | A ("A" is defined as 0% ≤ substrate protein remaining % ≤ 80%) | A ("A" is defined as 0% ≤ substrate protein remaining % ≤ 80%) | B ("B" is defined as 80%< substrate protein remaining %≤ 100%) | A ("A" is defined as 0% ≤ substrate protein remaining % ≤ 80%)
Cc1ccsc1C1=CCN(Cc2ccc3c(c2)C(=O)N(N2CCC(=O)NC2=O)C3=O)CC1 [GT-06434, 2-(2,4-dioxotetrahydropyrimidin-1(2H)-yl)-5-((4-(3-methylthiophen-2-yl)-3,6-dihydropyridin-1(2H)-yl)methyl)isoindoline-1,3-dione] | A ("A" is defined as 0% ≤ substrate protein remaining % ≤ 80%) | B ("B" is defined as 80%< substrate protein remaining %≤ 100%) | A ("A" is defined as 0% ≤ substrate protein remaining % ≤ 80%) | A ("A" is defined as 0% ≤ substrate protein remaining % ≤ 80%) | B ("B" is defined as 80%< substrate protein remaining %≤ 100%) | A ("A" is defined as 0% ≤ substrate protein remaining % ≤ 80%)
O=C1CCN(N2C(=O)c3ccc(CN4CC=C(c5ccsc5)CC4)cc3C2=O)C(=O)N1 [GT-06435, 2-(2,4-dioxotetrahydropyrimidin-1(2H)-yl)-5-((4-(thiophen-3-yl)-3,6-dihydropyridin-1(2H)-yl)methyl)isoindoline-1,3-dione] | A ("A" is defined as 0% ≤ substrate protein remaining % ≤ 80%) | B ("B" is defined as 80%< substrate protein remaining %≤ 100%) | A ("A" is defined as 0% ≤ substrate protein remaining % ≤ 80%) | A ("A" is defined as 0% ≤ substrate protein remaining % ≤ 80%) | B ("B" is defined as 80%< substrate protein remaining %≤ 100%) | A ("A" is defined as 0% ≤ substrate protein remaining % ≤ 80%)
C[C@@H]1CN(C(c2ccccc2)c2ccccc2)CCN1Cc1ccc2c(c1)CN(N1CCC(=O)NC1=O)C2=O [GT-06448, (R)-1-(5-((4-benzhydryl-2-methylpiperazin-1-yl)methyl)-1-oxoisoindolin-2-yl)dihydropyrimidine-2,4(1H,3H)-dione] | B ("B" is defined as 80%< substrate protein remaining %≤ 100%) | B ("B" is defined as 80%< substrate protein remaining %≤ 100%) | A ("A" is defined as 0% ≤ substrate protein remaining % ≤ 80%) | A ("A" is defined as 0% ≤ substrate protein remaining % ≤ 80%) | B ("B" is defined as 80%< substrate protein remaining %≤ 100%) | A ("A" is defined as 0% ≤ substrate protein remaining % ≤ 80%)
C[C@@H]1CN(C(c2ccccc2)c2ccccc2)CCN1Cc1ccc2c(c1)C(=O)N(N1CCC(=O)NC1=O)C2=O [GT-06449, (R)-5-((4-benzhydryl-2-methylpiperazin-1-yl)methyl)-2-(2,4-dioxotetrahydropyrimidin-1(2H)-yl)isoindoline-1,3-dione] | B ("B" is defined as 80%< substrate protein remaining %≤ 100%) | B ("B" is defined as 80%< substrate protein remaining %≤ 100%) | A ("A" is defined as 0% ≤ substrate protein remaining % ≤ 80%) | A ("A" is defined as 0% ≤ substrate protein remaining % ≤ 80%) | B ("B" is defined as 80%< substrate protein remaining %≤ 100%) | A ("A" is defined as 0% ≤ substrate protein remaining % ≤ 80%)
O=C1CCN(N2C(=O)c3ccc(CN4CC5CCC4CN5C(c4ccccc4)c4ccccc4)cc3C2=O)C(=O)N1 (stereo not drawn) [GT-06451, 5-((5-benzhydryl-2,5-diazabicyclo[2.2.2]octan-2-yl)methyl)-2-(2,4-dioxotetrahydropyrimidin-1(2H)-yl)isoindoline-1,3-dione] | A ("A" is defined as 0% ≤ substrate protein remaining % ≤ 80%) | B ("B" is defined as 80%< substrate protein remaining %≤ 100%) | B ("B" is defined as 80%< substrate protein remaining %≤ 100%) | B ("B" is defined as 80%< substrate protein remaining %≤ 100%) | B ("B" is defined as 80%< substrate protein remaining %≤ 100%) | B ("B" is defined as 80%< substrate protein remaining %≤ 100%)
O=C1CCN(N2Cc3cc(CN4CC5CCC(C4)N5C(c4ccccc4)c4ccccc4)ccc3C2=O)C(=O)N1 [GT-06452, 1-(5-((8-benzhydryl-3,8-diazabicyclo[3.2.1]octan-3-yl)methyl)-1-oxoisoindolin-2-yl)dihydropyrimidine-2,4(1H,3H)-dione] | A ("A" is defined as 0% ≤ substrate protein remaining % ≤ 80%) | B ("B" is defined as 80%< substrate protein remaining %≤ 100%) | B ("B" is defined as 80%< substrate protein remaining %≤ 100%) | B ("B" is defined as 80%< substrate protein remaining %≤ 100%) | B ("B" is defined as 80%< substrate protein remaining %≤ 100%) | B ("B" is defined as 80%< substrate protein remaining %≤ 100%)
O=C1CCN(N2C(=O)c3ccc(CN4CC5CCC(C4)N5C(c4ccccc4)c4ccccc4)cc3C2=O)C(=O)N1 [GT-06453, 5-((8-benzhydryl-3,8-diazabicyclo[3.2.1]octan-3-yl)methyl)-2-(2,4-dioxotetrahydropyrimidin-1(2H)-yl)isoindoline-1,3-dione] | B ("B" is defined as 80%< substrate protein remaining %≤ 100%) | B ("B" is defined as 80%< substrate protein remaining %≤ 100%) | A ("A" is defined as 0% ≤ substrate protein remaining % ≤ 80%) | B ("B" is defined as 80%< substrate protein remaining %≤ 100%) | B ("B" is defined as 80%< substrate protein remaining %≤ 100%) | B ("B" is defined as 80%< substrate protein remaining %≤ 100%)
